Experimental findings from US11358948B2, “CRBN ligands and uses thereof” (Kymera Therapeutics, Inc., priority 2017, dated 2022) are described below.

Counter-ions that a name gives are not always drawn.

Untagged CRBN-DDB1 complex, sequence (Q96SW2 whole entry): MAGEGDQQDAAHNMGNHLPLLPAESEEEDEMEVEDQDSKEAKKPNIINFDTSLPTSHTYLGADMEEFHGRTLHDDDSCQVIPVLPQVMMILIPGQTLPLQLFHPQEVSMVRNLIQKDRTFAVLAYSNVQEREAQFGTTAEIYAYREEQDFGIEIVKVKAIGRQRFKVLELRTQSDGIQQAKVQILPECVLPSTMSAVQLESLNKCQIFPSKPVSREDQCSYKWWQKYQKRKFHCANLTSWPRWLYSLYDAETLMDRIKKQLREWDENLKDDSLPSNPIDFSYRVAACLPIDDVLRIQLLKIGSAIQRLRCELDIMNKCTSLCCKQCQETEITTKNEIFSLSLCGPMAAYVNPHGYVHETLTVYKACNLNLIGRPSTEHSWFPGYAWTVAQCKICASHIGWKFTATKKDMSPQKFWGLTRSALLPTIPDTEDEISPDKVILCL
Untagged CRBN-DDB1 complex, sequence (Q16531 whole entry partner): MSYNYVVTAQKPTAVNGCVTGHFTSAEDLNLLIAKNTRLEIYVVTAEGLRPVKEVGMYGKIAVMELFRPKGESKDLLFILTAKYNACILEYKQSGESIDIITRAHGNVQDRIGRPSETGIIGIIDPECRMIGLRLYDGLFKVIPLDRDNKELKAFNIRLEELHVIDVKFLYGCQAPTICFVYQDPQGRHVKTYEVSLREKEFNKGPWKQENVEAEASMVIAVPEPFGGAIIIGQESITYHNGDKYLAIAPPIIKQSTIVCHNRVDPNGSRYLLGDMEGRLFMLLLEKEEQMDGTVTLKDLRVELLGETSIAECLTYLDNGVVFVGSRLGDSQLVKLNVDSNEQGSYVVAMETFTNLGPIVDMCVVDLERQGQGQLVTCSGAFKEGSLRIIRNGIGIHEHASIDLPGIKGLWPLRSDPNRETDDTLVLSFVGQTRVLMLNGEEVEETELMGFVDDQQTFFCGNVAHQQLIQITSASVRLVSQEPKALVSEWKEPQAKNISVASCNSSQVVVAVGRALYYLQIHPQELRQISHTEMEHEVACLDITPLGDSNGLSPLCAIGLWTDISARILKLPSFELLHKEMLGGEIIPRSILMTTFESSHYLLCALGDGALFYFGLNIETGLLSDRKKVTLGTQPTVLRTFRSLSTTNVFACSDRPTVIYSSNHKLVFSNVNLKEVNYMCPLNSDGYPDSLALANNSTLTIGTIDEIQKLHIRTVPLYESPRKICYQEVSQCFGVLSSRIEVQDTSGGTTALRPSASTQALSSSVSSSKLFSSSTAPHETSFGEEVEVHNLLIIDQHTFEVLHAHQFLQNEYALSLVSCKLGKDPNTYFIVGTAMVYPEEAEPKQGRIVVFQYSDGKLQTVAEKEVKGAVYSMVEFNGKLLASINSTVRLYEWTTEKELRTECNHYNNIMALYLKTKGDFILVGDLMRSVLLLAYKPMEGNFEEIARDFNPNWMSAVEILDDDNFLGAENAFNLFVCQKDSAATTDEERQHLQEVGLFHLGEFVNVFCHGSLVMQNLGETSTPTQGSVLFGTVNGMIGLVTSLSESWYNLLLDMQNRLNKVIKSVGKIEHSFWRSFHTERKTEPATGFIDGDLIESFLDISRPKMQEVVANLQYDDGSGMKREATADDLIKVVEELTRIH

In the first assay the target is His-tagged CRBN-DDB1 complex (Homo sapiens (Human), UniProt Q96SW2). The experiment in a line: Time-Resolved Fluorescence Resonance Energy Transfer (TR-FRET) assay, displacement of Cy5-labeled thalidomide. The class given is binding. The conditions noted are these: read-out: CRBN HTRF IC50. On the procedure: The mixture were incubated at room temperature for 1 hour. […] Quantitative loss of FRET efficiency as a function of compound concentrations was fitted by a four-parameter Logistic Function using GraphPad Prism 7.0 and the IC50 values were reported for each compound.
His-tagged CRBN-DDB1 complex, sequence (Q96SW2 whole entry): as the sequence (Q96SW2 whole entry) above
His-tagged CRBN-DDB1 complex, sequence (Q16531 whole entry partner): as the sequence (Q16531 whole entry partner) above
Background: In TR-FRET formats the signal depends on donor and acceptor labels being close together.
In general, IC50 refers to the concentration that gives 50% inhibition. As for `O=C1CCC(N2C[C@H](c3cccc(Br)c3)OC2=O)C(=O)N1` (single isomer, unassigned) [Compound I-84, (R)-3-((S)-5-(3-bromophenyl)-2-oxooxazolidin-3-yl)piperidine-2,6-dione or (S)-3-((S)-5-(3-bromophenyl)-2-oxooxazolidin-3-yl)piperidine-2,6-dione], the IC50 was under 1 µM.
On to `O=C1CCC(N2C(=O)Cc3ccccc32)C(=O)N1` (centres unmarked) [Compound I-3, 3-(2-Oxo-2,3-dihydro-1H-indol-1-yl)piperidine-2,6-dione], for which the IC50 lay in the range of 10 to 100 µM.
Take `CN(C)Cc1ccc2c(c1)n(C)c(=O)n2C1CCC(=O)NC1=O` (centres unmarked) [Compound I-61, 3-(5-((dimethylamino)methyl)-3-methyl-2-oxo-2,3-dihydro-1H-benzo[d]imidazol-1-yl)piperidine-2,6-dione]: the IC50 lay within 1 to 10 µM.
As for `CC(=O)Nc1ccc2c(c1)n(C)c(=O)n2C1CCC(=O)NC1=O` (centres unmarked) [Compound I-62, N-(1-(2,6-dioxopiperidin-3-yl)-3-methyl-2-oxo-2,3-dihydro-1H-benzo[d]imidazol-5-yl)acetamide], the IC50 is under 1 µM.
Take `Cc1ccc2c(c1)n(C)c(=O)n2C1CCC(=O)NC1=O` (centres unmarked) [Compound I-63, 3-(3,5-dimethyl-2-oxo-2,3-dihydro-1H-benzo[d]imidazol-1-yl)piperidine-2,6-dione]: the IC50 was under 1 µM.
Same read-out and setting: next, `Cn1c(=O)n(C2CCC(=O)NC2=O)c2ccc(CN)cc21` (centres unmarked) [Compound I-64, 3-(5-(Aminomethyl)-3-methyl-2-oxo-2,3-dihydro-1H-benzo[d]imidazol-1-yl)piperidine-2,6-dione]: under 1 µM; `Cn1c(=O)n(C2CCC(=O)NC2=O)c2ccc(N)cc21` (centres unmarked) [Compound I-65, 3-(5-Amino-3-methyl-2-oxo-2,3-dihydro-1H-1,3-benzodiazol-1-yl)piperidine-2,6-dione Hydrochloride]: under 1 µM.
On to `CC(=O)NCc1ccc2c(c1)n(C)c(=O)n2C1CCC(=O)NC1=O` (centres unmarked) [Compound I-66, N-((1-(2,6-dioxopiperidin-3-yl)-3-methyl-2-oxo-2,3-dihydro-1H-benzo[d]imidazol-5-yl)methyl)acetamide], for which the IC50 is under 1 µM.
Same read-out and setting: then `CCNC(=O)Nc1ccc2c(c1)n(C)c(=O)n2C1CCC(=O)NC1=O` (centres unmarked) [Compound I-67, 1-(1-(2,6-dioxopiperidin-3-yl)-3-methyl-2-oxo-2,3-dihydro-1H-benzo[d]imidazol-5-yl)-3-ethylurea], with under 1 µM; and `CNc1ccc2c(c1)n(C)c(=O)n2C1CCC(=O)NC1=O` (centres unmarked) [Compound I-68, 3-(3-methyl-5-(methylamino)-2-oxo-2,3-dihydro-1H-benzo[d]imidazol-1-yl)piperidine-2,6-dione], with under 1 µM.
Turning to `CN(C)c1ccc2c(c1)n(C)c(=O)n2C1CCC(=O)NC1=O` (centres unmarked) [Compound I-69, 3-(5-(dimethylamino)-3-methyl-2-oxo-2,3-dihydro-1H-benzo[d]imidazol-1-yl)piperidine-2,6-dione], the IC50 was under 1 µM.
As to `CNC(=O)c1ccc2c(c1)n(C)c(=O)n2C1CCC(=O)NC1=O` (centres unmarked) [Compound I-70, 1-(2,6-Dioxopiperidin-3-yl)-N,3-dimethyl-2-oxo-2,3-dihydro-1H-benzo[d]imidazole-5-carboxamide], the IC50 lay within 1 to 10 µM.
For the compound `CCNC(=O)NCc1ccc2c(c1)n(C)c(=O)n2C1CCC(=O)NC1=O` (centres unmarked) [Compound I-71, 1-((1-(2,6-dioxopiperidin-3-yl)-3-methyl-2-oxo-2,3-dihydro-1H-benzo[d]imidazol-5-yl)methyl)-3-ethylurea], the IC50 is under 1 µM.
The same measure, in the same setting: next, `O=C1CC[C@@H](N2C[C@H](c3ccc(Br)cc3)OC2=O)C(=O)N1` [Compound I-72, (R)-3-((S)-5-(4-bromophenyl)-2-oxooxazolidin-3-yl)piperidine-2,6-dione]: under 1 µM; `O=C1CC[C@H](N2C[C@H](c3ccc(Br)cc3)OC2=O)C(=O)N1` [Compound I-73, (S)-3-((S)-5-(4-bromophenyl)-2-oxooxazolidin-3-yl)piperidine-2,6-dione]: 10 to 100 µM; `Cn1c(=O)n(C2CCC(=O)NC2=O)c2ccc(CNC(N)=O)cc21` (centres unmarked) [Compound I-74, 1-((1-(2,6-dioxopiperidin-3-yl)-3-methyl-2-oxo-2,3-dihydro-1H-benzo[d]imidazol-5-yl)methyl)urea]: under 1 µM.
As to `Cn1c(=O)n(C2CCC(=O)NC2=O)c2cccc([N+](=O)[O-])c21` (centres unmarked) [Compound I-75, 3-(3-methyl-4-nitro-2-oxo-2,3-dihydro-1H-1,3-benzodiazol-1-yl)piperidine-2,6-dione], the IC50 is under 1 µM.
Regarding `CCOC(=O)NCc1ccc2c(c1)n(C)c(=O)n2C1CCC(=O)NC1=O` (centres unmarked) [Compound I-76, ethyl ((1-(2,6-dioxopiperidin-3-yl)-3-methyl-2-oxo-2,3-dihydro-1H-benzo[d]imidazol-5-yl)methyl)carbamate], the IC50 was under 1 µM.
Turning to `CC(C)(C)OC(=O)NCCOCCOCCOCCOCC#Cc1ccc([C@H]2CN([C@H]3CCC(=O)NC3=O)C(=O)O2)cc1` [Compound I-77, tert-butyl (15-(4-((S)-3-((S)-2,6-dioxopiperidin-3-yl)-2-oxooxazolidin-5-yl)phenyl)-3,6,9,12-tetraoxapentadec-14-yn-1-yl)carbamate], the IC50 was under 1 µM.
The same measure, in the same setting: then `Cn1c(=O)n(C2CCC(=O)NC2=O)c2cccc(C#N)c21` (centres unmarked) [Compound I-78], with under 1 µM; and `Cc1cc(-c2ccc3c(c2)n(C)c(=O)n3C2CCC(=O)NC2=O)n[nH]1` (centres unmarked) [Compound I-79, 3-(3-methyl-5-(3-methyl-1H-pyrazol-5-yl)-2-oxo-2,3-dihydro-1H-benzo[d]imidazol-1-yl)piperidine-2,6-dione], with under 1 µM; and `Cc1nc(-c2ccc3c(c2)n(C)c(=O)n3C2CCC(=O)NC2=O)c[nH]1` (centres unmarked) [Compound I-80, 3-(3-methyl-5-(2-methyl-1H-imidazol-5-yl)-2-oxo-2,3-dihydro-1H-benzo[d]imidazol-1-yl)piperidine-2,6-dione], with under 1 µM.
On to `Cn1c(=O)n(C2CCC(=O)NC2=O)c2cccc(N)c21` (centres unmarked) [Compound I-81, 3-(4-amino-3-methyl-2-oxo-2,3-dihydro-1H-benzo[d]imidazol-1-yl)piperidine-2,6-dione], for which the IC50 is under 1 µM.
`Cn1c(=O)n(C2CCC(=O)NC2=O)c2ccc(-c3cn(CCOCCOCCOCCNC(=O)OC(C)(C)C)nn3)cc21` (centres unmarked) [Compound I-82, tert-butyl (2-(2-(2-(2-(4-(1-(2,6-dioxopiperidin-3-yl)-3-methyl-2-oxo-2,3-dihydro-1H-benzo[d]imidazol-5-yl)-1H-1,2,3-triazol-1-yl)ethoxy)ethoxy)ethoxy)ethyl)carbamate]: the IC50 was under 1 µM.
For the compound `CC(C)(C)OC(=O)NCCOCCOCCOCCOCCCc1ccc([C@H]2CN(C3CCC(=O)NC3=O)C(=O)O2)cc1` (stereo partly drawn) [Compound I-83, tert-butyl (15-(4-((5S)-3-(2,6-dioxopiperidin-3-yl)-2-oxooxazolidin-5-yl)phenyl)-3,6,9,12-tetraoxapentadecyl)carbamate], the IC50 was under 1 µM.
Regarding `Cn1c(=O)n(C2CCC(=O)NC2=O)c2ccc(CCCOCCOCCOCCOCCNC(=O)OC(C)(C)C)cc21` (centres unmarked) [Compound I-85, tert-butyl (15-(1-(2,6-dioxopiperidin-3-yl)-3-methyl-2-oxo-2,3-dihydro-1H-benzo[d]imidazol-5-yl)-3,6,9,12-tetraoxapentadecyl)carbamate], the IC50 is under 1 µM.
Turning to `Cn1c(=O)n(C2CCC(=O)NC2=O)c2cccc(C#CCOCCOCCNC(=O)OC(C)(C)C)c21` (centres unmarked) [Compound I-86, tert-butyl (2-(2-((3-(1-(2,6-dioxopiperidin-3-yl)-3-methyl-2-oxo-2,3-dihydro-1H-benzo[d]imidazol-4-yl)prop-2-yn-1-yl)oxy)ethoxy)ethyl)carbamate], the IC50 was under 1 µM.
On to `Cn1c(=O)n(C2CCC(=O)NC2=O)c2ccc(C(N)=O)cc21` (centres unmarked) [Compound I-90, 1-(2,6-dioxopiperidin-3-yl)-3-methyl-2-oxo-2,3-dihydro-1H-benzo[d]imidazole-5-carboxamide], for which the IC50 was over 100 µM.

The target in a further assay is Untagged CRBN-DDB1 complex (Homo sapiens (Human), UniProt Q96SW2). The experiment in a line: Fluorescence Polarization (FP) assay, displacement of Cy5-labeled thalidomide. The conditions noted are these: untagged CRBN-DDB1 50 nM, Cy5-labeled thalidomide 20 nM, 10 min room temperature. The class given is binding. On the procedure:
The final solution contained 50 mM HEPES, 200 mM NaCl and 2 mM DTT, pH 7.5. The mixtures were incubated at room temperature for 10 min. The FP signals were recorded on an EnVision plate reader (Perkin Elmer) using the following settings: Excitation Light (%): 100; Measurement Height: 12; G-Factor: 1; Detector Gain 1: 500; Detector Gain 2: 500; Flash Number: 100. Dose-dependent loss of FP signals was fitted by four-parameter Logistic Function using GraphPad Prism 7.0 and the IC50 values were reported for each compound.
(In general: Polarisation of emitted light reports the rotation of a fluorescent probe.)
Consider `O=C1CCC(N2C(=O)Cc3ccccc32)C(=O)N1` (centres unmarked) [Compound I-3, 3-(2-Oxo-2,3-dihydro-1H-indol-1-yl)piperidine-2,6-dione], for which the IC50 was over 100 µM.
